Laboratory results reported in publication PMC4925217 (FEBS letters, 2016).

Tests used:
[1] = target: T1, ScRR (ScRR1 with ScRR2•ScRR4) (Saccharomyces cerevisiae, UniProt P21524); test: NDP reduction assay; format: biochemical; settings: read-out: % inhibition at 20 μM
T1 sequence (P21524 1-888): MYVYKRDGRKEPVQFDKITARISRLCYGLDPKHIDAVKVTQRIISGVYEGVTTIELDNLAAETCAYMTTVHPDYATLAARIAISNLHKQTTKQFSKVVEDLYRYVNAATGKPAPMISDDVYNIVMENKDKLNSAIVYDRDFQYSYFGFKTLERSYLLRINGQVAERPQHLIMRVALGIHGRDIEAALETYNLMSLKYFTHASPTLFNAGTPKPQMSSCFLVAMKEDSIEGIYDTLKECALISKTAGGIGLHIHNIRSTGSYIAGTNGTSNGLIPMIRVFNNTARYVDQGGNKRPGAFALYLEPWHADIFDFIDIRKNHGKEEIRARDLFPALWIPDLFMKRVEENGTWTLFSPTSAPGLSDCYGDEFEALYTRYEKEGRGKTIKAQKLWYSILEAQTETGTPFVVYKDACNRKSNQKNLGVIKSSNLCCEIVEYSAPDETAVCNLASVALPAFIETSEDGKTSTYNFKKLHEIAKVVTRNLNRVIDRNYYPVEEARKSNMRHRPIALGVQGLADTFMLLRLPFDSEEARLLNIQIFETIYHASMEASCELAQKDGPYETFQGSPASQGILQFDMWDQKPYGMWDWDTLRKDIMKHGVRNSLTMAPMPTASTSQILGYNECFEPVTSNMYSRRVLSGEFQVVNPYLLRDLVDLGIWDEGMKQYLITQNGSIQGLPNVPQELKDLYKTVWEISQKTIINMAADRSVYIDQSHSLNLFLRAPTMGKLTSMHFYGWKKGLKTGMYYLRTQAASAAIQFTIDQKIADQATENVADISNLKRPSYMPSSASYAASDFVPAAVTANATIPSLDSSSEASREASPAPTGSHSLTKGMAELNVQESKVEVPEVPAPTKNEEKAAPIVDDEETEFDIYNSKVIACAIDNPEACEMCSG
T1 sequence (P09938 1-399 partner): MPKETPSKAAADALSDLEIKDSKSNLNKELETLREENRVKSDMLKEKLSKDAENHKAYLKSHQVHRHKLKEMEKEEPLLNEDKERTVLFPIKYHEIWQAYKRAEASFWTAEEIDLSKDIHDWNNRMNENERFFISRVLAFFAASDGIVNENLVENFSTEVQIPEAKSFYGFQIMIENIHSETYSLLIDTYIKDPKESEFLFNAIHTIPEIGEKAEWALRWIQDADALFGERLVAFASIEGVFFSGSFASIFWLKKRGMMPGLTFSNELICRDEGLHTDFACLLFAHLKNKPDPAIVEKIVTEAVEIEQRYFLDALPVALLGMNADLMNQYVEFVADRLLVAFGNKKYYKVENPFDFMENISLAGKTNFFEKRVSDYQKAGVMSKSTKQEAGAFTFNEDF
T1 sequence (P49723 1-345 partner): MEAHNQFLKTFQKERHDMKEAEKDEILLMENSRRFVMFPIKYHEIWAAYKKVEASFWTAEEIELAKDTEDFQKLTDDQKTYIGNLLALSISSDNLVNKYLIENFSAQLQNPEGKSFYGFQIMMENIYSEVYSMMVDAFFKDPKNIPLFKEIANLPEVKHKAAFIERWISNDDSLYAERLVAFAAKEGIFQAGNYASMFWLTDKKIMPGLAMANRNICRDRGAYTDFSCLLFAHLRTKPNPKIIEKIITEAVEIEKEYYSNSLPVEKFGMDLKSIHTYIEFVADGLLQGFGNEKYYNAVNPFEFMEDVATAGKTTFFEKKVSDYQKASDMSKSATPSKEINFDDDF

[2] = target: T1, ScRR (ScRR1 with ScRR2•ScRR4); test: [3H]CDP reduction assay, borate chromatography, isotope counting; format: biochemical; settings: ATP effector, 0.05 to 1 mM CDP (hexamer); labelled compound; C-site

| inhibition at 20 µM [1] [%] | Structure (SMILES) | [3H]CDP reduction assay, borate chromatography, isotope counting [2] |
| --- | --- | --- |
| ~50 | Nc1ncnc2c1ncn2[C@H]1C[C@H](O)[C@@H](COP(=O)(O)OP(=O)(O)OP(=O)(O)O)O1 [dATP] | – |
| – | Nc1ccn([C@@H]2O[C@H](COP(=O)(O)OP(=O)(O)O)[C@@H](O)[C@H]2O)c(=O)n1 [CDP] | When ATP/CDP was used as the effector-substrate pair, [^3H]CDP concentrations were varied |
